In patent publication US12011444B2, “N-substituted indole derivatives as PGE2 receptor modulators” (Idorsia Pharmaceuticals Ltd, priority 2015, dated 2024):

Columns and labels:
[1] = molecular target: PTGER2 (EP2) (Homo sapiens (Human), UniProt P43116); assay: hEP2 b-arrestin assay (PathHunter HEK 293 PTGER2 b-arrestin cells); format: cell-based; details: antagonistic activity on hEP2; mean where measured multiple times
Method in brief: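 Readout is β-galactosidase complementation luminescence, expressed as percent of DMSO control (duplicates). PathHunter HEK293 EP2/β-arrestin 2 cells, grown 24 h, received compound for 15 min at 37 °C before a 120 min challenge with PGE2 at 5 μM final, followed by 1 h detection at room temperature.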

[2] = molecular target: PTRGER4 (EP4) (Homo sapiens (Human), UniProt P35408); assay: hEP4 b-arrestin assay (PathHunter HEK 293 PTGER4 b-arrestin cells); format: cell-based; details: antagonistic activity on hEP4; mean where measured multiple times
Chain of PTRGER4 (EP4) (P35408 whole entry, looked up, the tested form may be a part): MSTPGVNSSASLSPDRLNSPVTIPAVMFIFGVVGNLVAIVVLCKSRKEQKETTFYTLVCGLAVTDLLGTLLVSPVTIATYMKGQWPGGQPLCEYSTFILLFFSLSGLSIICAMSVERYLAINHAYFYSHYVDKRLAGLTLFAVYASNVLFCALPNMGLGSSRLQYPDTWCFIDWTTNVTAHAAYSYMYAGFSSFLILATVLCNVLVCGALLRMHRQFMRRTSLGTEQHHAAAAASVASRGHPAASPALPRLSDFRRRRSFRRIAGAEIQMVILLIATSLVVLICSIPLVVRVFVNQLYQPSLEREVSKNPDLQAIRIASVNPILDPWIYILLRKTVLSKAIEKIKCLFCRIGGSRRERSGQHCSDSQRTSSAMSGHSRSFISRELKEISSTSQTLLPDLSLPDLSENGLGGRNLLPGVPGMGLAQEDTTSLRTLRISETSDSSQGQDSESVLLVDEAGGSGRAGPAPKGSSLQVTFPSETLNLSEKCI
Method in brief: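 Antagonist mode: compound is given 15 min at 37 °C, then 20 nM (final) PGE2 for 120 min, in HEK293 cells stably expressing EP4 fused to ProLink and β-arrestin 2 fused to EA. Recruitment read as β-gal luminescence after 1 h reagent at room temperature, as percent of DMSO control.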

Chain of PTGER2 (EP2) (P43116 whole entry): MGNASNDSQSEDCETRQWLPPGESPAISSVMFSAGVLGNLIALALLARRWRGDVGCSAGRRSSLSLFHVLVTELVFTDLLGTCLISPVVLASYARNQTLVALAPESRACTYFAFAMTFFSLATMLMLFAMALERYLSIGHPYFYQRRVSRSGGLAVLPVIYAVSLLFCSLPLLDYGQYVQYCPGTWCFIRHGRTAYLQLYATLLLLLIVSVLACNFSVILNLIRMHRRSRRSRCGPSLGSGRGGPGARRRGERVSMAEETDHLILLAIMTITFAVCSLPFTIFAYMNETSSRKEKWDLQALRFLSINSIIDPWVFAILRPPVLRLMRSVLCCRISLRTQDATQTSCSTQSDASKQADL

Row | SMILES | IC50 [1] [µM] | IC50 [2] [µM]
1 | Cc1cc(F)c(F)c2c1cc(C)n2CCNc1cc(-c2ccc3c(c2)CC(=O)N3)ncn1 [compound 93] | 0.183 | 0.475
2 | Cc1cc(F)cc2c1cc(C)n2CCNc1cc(-c2ccc(-c3ccon3)cc2)ncn1 [compound 94, [2-(6-Fluoro-2,4-dimethyl-indol-1-yl)-ethyl]-[6-(4-isoxazol-3-yl-phenyl)-pyrimidin-4-yl]-amine] | 0.03 | 0.299
3 | Cc1ccc(F)c2c1cc(C)n2CCNc1cc(-c2ccc3c(c2)CN(C)C3=O)ncn1 [compound 95] | 0.059 | 0.167
4 | Cc1ccc(F)c2c1cc(C)n2CCNc1cc(-c2ccc(-c3cnco3)cc2)ncn1 [compound 97] | 0.177 | 0.527
5 | COc1cccc2c1cc(C)n2CCNc1cc(-c2ccc(-c3cscn3)cc2)ncn1 [compound 98, [2-(4-Methoxy-2-methyl-indol-1-yl)-ethyl]-[6-(4-thiazol-4-yl-phenyl)-pyrimidin-4-yl]-amine] | 0.007 | 0.23
6 | Cc1ccc(F)c2c1cc(C)n2CCNc1cc(-c2ccc(-c3nnc[nH]3)cc2)ncn1 [compound 99] | 0.113 | 0.123
7 | COc1cccc2c1cc(C)n2CCNc1cc(-c2ccc(-c3nnc[nH]3)cc2)ncn1 [compound 100, [2-(4-Methoxy-2-methyl-indol-1-yl)-ethyl]-{6-[4-(4H-[1,2,4]triazol-3-yl)-phenyl]-pyrimidin-4-yl}-amine] | 0.011 | 0.202
8 | COc1ccc(F)c2c1cc(C)n2CCNc1cc(-c2csc(CO)c2)ncn1 [compound 101] | 0.037 | 0.548
9 | Cc1c(F)cc2c(cc(C)n2CCNc2cc(-c3ccc(C(=O)O)c(CC(C)C)c3)ncn2)c1F [compound 102] | 0.142 | 0.597
10 | CCc1cc(-c2cc(NCCn3c(C)cc4c(C)ccc(F)c43)ncn2)sc1C(=O)O [compound 103] | 0.013 | 0.058
11 | CCc1cc(-c2cc(NCCn3c(C)cc4c(C)cc(F)cc43)ncn2)sc1C(=O)O [compound 104] | 0.024 | 0.044
12 | Cc1cc(F)cc2c1cc(C)n2CCNc1cc(-c2ccc(C(=O)O)c(Cl)c2)ncn1 [compound 105] | 0.034 | 0.934
13 | Cc1cc(-c2cc(NCCn3c(C)cc4c(Cl)ccc(F)c43)ncn2)ccc1C(=O)O [compound 106] | 0.044 | 0.698
14 | COc1ccc(F)c2c1cc(C)n2CCNc1cc(-c2cc(C)c(C(=O)O)s2)ncn1 [compound 107] | 0.005 | 0.046
15 | CCOc1cc(-c2cc(NCCn3c(C)cc4c(Cl)cccc43)ncn2)sc1C(=O)O [compound 108] | 0.001 | 0.015
16 | COc1ccc(F)c2c1cc(C)n2CCNc1cc(-c2ccc(C(=O)O)cc2)ncn1 [compound 109] | 0.049 | 0.955
17 | CCc1cc(-c2cc(NCCn3c(C)cc4c(OC)cccc43)ncn2)sc1C(=O)O [compound 110] | 0.003 | 0.046
18 | COc1ccc(Cl)c2c1cc(C)n2CCNc1cc(-c2cc(F)c(C(=O)O)s2)ncn1 [compound 111] | 0.031 | 0.166
19 | COc1ccc(F)c2c1cc(C)n2CCNc1cc(-c2cc(F)c(C(=O)O)s2)ncn1 [compound 112] | 0.004 | 0.069
20 | COc1cc(F)cc2c1cc(C)n2CCNc1cc(-c2cc(F)c(C(=O)O)s2)ncn1 [compound 113] | 0.008 | 0.057
21 | COc1ccc(F)c2c1cc(C)n2CCNc1cc(-c2cc(Cl)c(C(=O)O)s2)ncn1 [compound 114] | 0.004 | 0.027
22 | COc1ccc(F)c2c1cc(C)n2CCNc1cc(-c2ccc3[nH]c(=O)[nH]c3c2)ncn1 [compound 115] | 0.056 | 0.742

Row | SMILES | IC50 [1] [µM] | IC50 [2] [µM]
23 | COc1ccc(F)c2c1cc(C)n2CCNc1cc(-c2ccc(S(=O)(=O)O)cc2)ncn1 [compound 116, 4-{6-[2-(7-Fluoro-4-methoxy-2-methyl-indol-1-yl)-ethylamino]-pyrimidin-4-yl}-benzenesulfonic acid] | 0.019 | 0.382
24 | CCOc1cc(-c2cc(NCCn3c(C)cc4ccc(OC)cc43)ncn2)sc1C(=O)O [compound 117, 3-Ethoxy-5-{6-[2-(6-methoxy-2-methyl-indol-1-yl)-ethylamino]-pyrimidin-4-yl}-thiophene-2-carboxylic acid] | 0.001 | 0.114
25 | CCc1cc(-c2cc(NCCn3c(C)cc4c(CC)cccc43)ncn2)ccc1C(=O)O [compound 118, 2-Ethyl-4-{6-[2-(4-ethyl-2-methyl-indol-1-yl)-ethylamino]-pyrimidin-4-yl}-benzoic acid] | 0.612 | 0.933
26 | Cc1cc2ccccc2n1CCNc1cc(-c2ccc(C(=O)O)c(CC(C)C)c2)ncn1 [compound 119, 2-Isobutyl-4-{6-[2-(2-methyl-indol-1-yl)-ethylamino]-pyrimidin-4-yl}-benzoic acid] | 0.018 | 0.941
27 | CCCc1cc(-c2cc(NCCn3c(C)cc4c(C)cccc43)ncn2)ccc1C(=O)O [compound 120, 4-{6-[2-(2,4-Dimethyl-indol-1-yl)-ethylamino]-pyrimidin-4-yl}-2-propyl-benzoic acid] | 0.006 | 0.495
28 | CCc1cc(-c2cc(NCCn3c(C)cc4c(F)ccc(F)c43)ncn2)ccc1C(=O)O [compound 121, 4-{6-[2-(4,7-Difluoro-2-methyl-indol-1-yl)-ethylamino]-pyrimidin-4-yl}-2-ethyl-benzoic acid] | 0.005 | 0.765
29 | CCc1cc(-c2cc(NCCn3c(C)cc4cc(F)cc(F)c43)ncn2)ccc1C(=O)O [compound 122, 4-{6-[2-(5,7-Difluoro-2-methyl-indol-1-yl)-ethylamino]-pyrimidin-4-yl}-2-ethyl-benzoic acid] | 0.009 | 0.974
30 | Cc1cc(-c2cc(NCCn3c(C)cc4c(C)ccc(F)c43)ncn2)cc(Cl)c1C(=O)O [compound 123, 2-Chloro-4-{6-[2-(7-fluoro-2,4-dimethyl-indol-1-yl)-ethylamino]-pyrimidin-4-yl}-6-methyl-benzoic acid] | 0.03 | 0.158
31 | CCOc1cc(-c2cc(NCCn3c(C)cc4c(C)ccc(F)c43)ncn2)ccc1CO [compound 124, (2-Ethoxy-4-{6-[2-(7-fluoro-2,4-dimethyl-indol-1-yl)-ethylamino]-pyrimidin-4-yl}-phenyl)-methanol] | 0.007 | 0.151
32 | CCCc1cc(-c2cc(NCCn3c(C)cc4cccc(F)c43)ncn2)ccc1C(=O)O [compound 125, 4-{6-[2-(7-Fluoro-2-methyl-indol-1-yl)-ethylamino]-pyrimidin-4-yl}-2-propyl-benzoic acid] | 0.008 | 0.932
33 | Cc1ccc(F)c2c1cc(C)n2CCNc1cc(-c2cc(Br)c(C(=O)O)cc2F)ncn1 [compound 126] | 0.128 | 0.928
34 | CCOc1cc(-c2cc(NCCn3c(C)cc4c(OC)cccc43)ncn2)ccc1CO [compound 127, (2-Ethoxy-4-{6-[2-(4-methoxy-2-methyl-indol-1-yl)-ethylamino]-pyrimidin-4-yl}-phenyl)-methanol] | 0.004 | 0.192
35 | CCOc1cc(-c2cc(NCCn3c(C)cc4c(C)cccc43)ncn2)ccc1C(=O)O [compound 128, 4-{6-[2-(2,4-Dimethyl-indol-1-yl)-ethylamino]-pyrimidin-4-yl}-2-ethoxy-benzoic acid] | 0.016 | 0.417
36 | COc1cc(-c2cc(NCCn3c(C)cc4c(C)ccc(F)c43)ncn2)ccc1C(=O)O [compound 129, 4-{6-[2-(7-Fluoro-2,4-dimethyl-indol-1-yl)-ethylamino]-pyrimidin-4-yl}-2-methoxy-benzoic acid] | 0.048 | 0.622
37 | COc1cc(-c2cc(NCCn3c(C)cc4c(OC)ccc(F)c43)ncn2)ccc1CO [compound 130, (4-{6-[2-(7-Fluoro-4-methoxy-2-methyl-indol-1-yl)-ethylamino]-pyrimidin-4-yl}-2-methoxy-phenyl)-methanol] | 0.004 | 0.078
38 | COc1cccc2c1cc(C)n2CCNc1cc(-c2cc(C)c(C(=O)O)c(Cl)c2)ncn1 [compound 131, 2-Chloro-4-{6-[2-(4-methoxy-2-methyl-indol-1-yl)-ethylamino]-pyrimidin-4-yl}-6-methyl-benzoic acid] | 0.023 | 0.402
39 | COc1ccc(F)c2c1cc(C)n2CCNc1cc(-c2ccc(NC(N)=O)cc2)ncn1 [compound 132, (4-{6-[2-(7-Fluoro-4-methoxy-2-methyl-indol-1-yl)-ethylamino]-pyrimidin-4-yl}-phenyl)-urea] | 0.043 | 0.277
40 | Cc1cc2ccccc2n1CCNc1cc(-c2ccc3ccncc3c2)ncn1 [compound 133] | 0.029 | 0.99
41 | CNc1cc(-c2cc(NCCn3c(C)cc4c(F)ccc(F)c43)ncn2)ccc1C(=O)O [compound 134, 4-{6-[2-(4,7-Difluoro-2-methyl-indol-1-yl)-ethylamino]-pyrimidin-4-yl}-2-methylamino-benzoic acid] | 0.001 | 0.174
42 | Cc1cc(-c2cc(NCCn3c(C)cc4c(C)ccc(F)c43)ncn2)ccc1S(N)(=O)=O [compound 135] | 0.096 | 0.288
43 | CNc1cc(-c2cc(NCCn3c(C)cc4c(C)ccc(F)c43)ncn2)ccc1C(=O)O [compound 136, 4-{6-[2-(7-Fluoro-2,4-dimethyl-indol-1-yl)-ethylamino]-pyrimidin-4-yl}-2-methylamino-benzoic acid] | 0.005 | 0.048
